In patent publication US9388124B2, “Ingenol-3-acylates I” (LEO LABORATORIES LIMITED, priority 2010, dated 2016):
Where two headings read alike, the source gives them in different places.

Experiments:
Format in all cases: cell-based
[1] = test system: PMN's (polymorphonuclear leukocytes); test: Neutrophil oxidative burst assay; settings: Leukocyte, 40 min, read-out: Neutrophil oxidative burst Rel EC50 range
Procedure: Neutrophil Oxidative Burst Assay:
PMN's (polymorphonuclear leukocytes) were isolated and purified from fresh buffy coats by sequential sedimentation, density centrifugation and lysis of contaminating erythrocytes. Buffy coats were incubated with 2% methocel for 30-45 min to differentially sediment red blood cells. The leukocyte-rich supernatant was transferred to lymphoprep tubes to remove mononuclear cells by density centrifugation (400×g, 30 min). The pellet was resuspended and any remaining erythrocytes lysed using 0.2% NaCl for 30 sec before restoring isotonicity by the addition of 1.2% NaCl. This step was repeated until the cell pellet appears relatively free of red blood cells. Cells were resuspended in DPBS (Dulbecco's Phosphate Buffered Saline) (w.o. Ca^2+, Mg^2+) and the concentration adjusted to 1.4×10^6 cells/ml in HBSS (Hanks Balanced Salt solution) (w Ca^2+, Mg^2+) containing 0.1% BSA (Bovine Serum Albumin) and 5 mM glucose just prior to assay initiation. Titrated reference and test compounds were pre-mixed with HE (Hydroethidine) (10 μM final assay concentration) before addition to 96-well plates containing 2.5×10^5 cells. Following 40 min incubation at RT, changes in the respiratory burst was estimated by measuring fluorescence at 579 nm (excitation: 485 nm) using an Envision plate reader.
Test compound titration curves were fitted to a four-parameter sigmoidal curve after normalizing the effect of the test compound to the effect of the positive control (5×10^−7 M PEP0005). Rel EC50 denotes the concentration of test compound producing an effect that is midway between the fitted top and bottom. Abs EC50 is the concentration of test compound that provokes a response corresponding to 50% of the maximal effect associated with the positive control (5×10^−7 M PEP0005).

[2] = test system: Primary human epidermal keratinocytes, HeKa; test: HeKa cytokine release (IL-8) assay
Procedure: HeKa Cytokine Release (IL-8) Assay:
Primary human epidermal keratinocytes, HeKa, were seeded (10.000 cells/well) in 96-well plates the day before the assay. Test compounds were diluted in DMSO (dimethyl sulfoxide) and further diluted in assay medium and pipetted into wells of 96 well-plates containing HeKa cells. The plates were incubated for 6 h at 37° C. in humidified air with 5% CO2. Plates were centrifuged briefly to spin down cells at 4° C., the supernatant was removed and analysed by Meso Scale Discovery (MSD) 4-spot cytokine assay (Pro-inflammatory II Ultra Sensitive kit, MSD, MD, USA). The MSD assay employs a sandwich immunoassay format where capture antibodies are coated in a patterned array on the bottom of the wells of a 4-Spot-Multi-MSD plate. Standard samples were incubated in the MULTI-SPOT plates as well, and the cytokine (IL-8) binds to its corresponding capture antibody spot. The cytokine level was quantitated on a SECTOR™ Imager using a cytokine-specific Detection Antibody labelled with MSD SULFO-TAG™ reagent.
Test compound titration curves were fitted to a four-parameter sigmoidal curve after normalizing the effect of the test compound to the effect of the positive control (1.5×10^−7 M PEP0005). Rel EC50 denotes the concentration of test compound producing an effect that is midway between the fitted top and bottom.

HeLa cells = test: Necrosis assay; settings: Homo sapiens, 0.5 h, read-out: HeLa Necrosis EC50 range
Procedure: HeLa cells (ATCC CCL-002) were grown in minimal essential medium (Invitrogen catalog no. 42360) containing 10% fetal bovine serum, 100 IU/ml penicillin and 100 μg/ml streptomycin. 4,000-6,000 cells were seeded into 96-well black ViewPlates-plates, clear bottom, (Perkin Elmer) in 100 μl medium and incubated overnight. Compounds were dissolved and pre-diluted in DMSO in 96-well polypropylene plates (Greiner) in a concentration range of 15 μM to 600 μM. At the time of the experiment cell plates were placed on heating blocks at 37° C., medium was removed and 40 μl fresh, pre-warmed medium was added per well. Cells were incubated for 15 min before addition of compounds. In parallel, 3 μl of compounds were diluted with 197 μl growth medium on a Tecan freedom-EVO pipetting station using 250 μl/s pipetting speed, in order to ensure effective mixing of the highly concentrated compound solutions with the aqueous phase. These pre-dilution plates were then equilibrated on heating blocks at 37° C. for 10 min. 80 μl pre-diluted compound were transferred manually to the corresponding wells containing HeLa cells yielding compound concentrations of 10 μM to 400 μM. Control conditions were 1% DMSO in growth medium (100% viability) and 400 μM ingenol mebutate in growth medium (0% viability). Plates were incubated on the heating blocks at 37° C. for 30 min. At the end of the incubation 10 μl PrestoBlue reagent (Invitrogen) were added to each well, plates were sealed with black seal, followed by incubation at 37° C. for 10 min with gentle shaking (150 rpm). Subsequently, plates were placed at room temperature for 20-30 min. Plates were read immediately after on an Envision Fluorescence reader (Perkin Elmer) with excitation at 535 nm and emission at 630 nm. Test compound titration curves were fitted to a four-parameter sigmoidal curve after normalizing the effect of the test compound to the effect of the positive control (4 10^−4 M PEP0005/ingenol mebutate). AbsEC50 denotes the concentration of test compound producing 50% effect.

[3] = HEKa, 6 h, read-out: HeKa cytokine release (IL-8) Rel EC50 range
[4] = PMNs, 40 min at RT, hydroethidine fluorescence, normalized to 5×10^−7 M PEP0005
[5] = HeKa cells, 6 h at 37° C., MSD IL-8, normalized to 1.5×10^−7 M PEP0005, read-out: HeKa cytokine release (IL-8) Rel EC50 range
[6] = HeLa cells, 30 min at 37° C., PrestoBlue, AbsEC50, normalized to 4 10^−4 M PEP0005/ingenol mebutate

| Compound | EC50 [1] | EC50 [2, 3] | EC50 (HeLa cells; HeLa) | EC50 [1, 4] | EC50 [2, 5] | EC50 (HeLa cells; [6]) |
| --- | --- | --- | --- | --- | --- | --- |
| C=C(C)C(=O)O[C@H]1C(C)=C[C@]23C(=O)[C@@H](C=C(CO)[C@@H](O)[C@]12O)[C@H]1[C@@H](C[C@H]3C)C1(C)C [Compound 101, Ingenol 3-(2-methyl-acrylate)] | < 20 nM | > 100 nM | 150000 to 350000 nM |  |  |  |
| CO/N=C(/C(=O)O[C@H]1C(C)=C[C@]23C(=O)[C@@H](C=C(CO)[C@@H](O)[C@]12O)[C@H]1[C@@H](C[C@H]3C)C1(C)C)c1ccccc1 [Compound 116, Ingenol 3-((2E)-2-methoxyimino-2-phenyl-acetate)] | 20 to 100 nM | 20 to 100 nM |  |  |  |  |
| CC1=C[C@]23C(=O)[C@@H](C=C(CO)[C@@H](O)[C@]2(O)[C@H]1OC(=O)C(C)C1CCCCC1)[C@H]1[C@@H](C[C@H]3C)C1(C)C (stereo partly shown) [Compound 114, Ingenol 3-(2-cyclohexylpropanoate)] | < 20 nM | < 20 nM | 150000 to 350000 nM |  |  |  |
| C/C=C(/C(=O)O[C@H]1C(C)=C[C@]23C(=O)[C@@H](C=C(CO)[C@@H](O)[C@]12O)[C@H]1[C@@H](C[C@H]3C)C1(C)C)c1ccccc1 [Compound 118, Ingenol 3-((E)-2-phenylbut-2-enoate)] | < 20 nM | < 20 nM | < 150000 nM |  |  |  |
| CC1=C[C@]23C(=O)[C@@H](C=C(CO)[C@@H](O)[C@]2(O)[C@H]1OC(=O)C(C)C)[C@H]1[C@@H](C[C@H]3C)C1(C)C [Compound 105, Ingenol 3-(2-methyl-propanoate)] | < 20 nM | 20 to 100 nM |  |  |  |  |
| CC(C)=CC(=O)O[C@H]1C(C)=C[C@]23C(=O)[C@@H](C=C(CO)[C@@H](O)[C@]12O)[C@H]1[C@@H](C[C@H]3C)C1(C)C [Compound 102, Ingenol 3-(3-methyl-butenoate)] | < 20 nM | 20 to 100 nM | 150000 to 350000 nM |  |  |  |
| CO/N=C(\C(=O)O[C@H]1C(C)=C[C@]23C(=O)[C@@H](C=C(CO)[C@@H](O)[C@]12O)[C@H]1[C@@H](C[C@H]3C)C1(C)C)c1ccccc1 [Compound 115, Ingenol 3-((2Z)-2-methoxyimino-2-phenyl-acetate)] | 20 to 100 nM | < 20 nM | < 150000 nM |  |  |  |
| C/C=C(/C)C(=O)O[C@H]1C(C)=C[C@]23C(=O)[C@@H](C=C(CO)[C@@H](O)[C@]12O)[C@H]1[C@@H](C[C@H]3C)C1(C)C [PEP005, Ingenol-3-angelate, reference compound] |  |  |  | < 20 nM | < 20 nM | 150000 to 350000 nM |
| CC1=C[C@]23C(=O)[C@@H](C=C(CO)[C@@H](O)[C@]2(O)[C@H]1OC(=O)C(C#N)=C1CCCCC1)[C@H]1[C@@H](C[C@H]3C)C1(C)C [Compound 120, Ingenol 3-(2-cyano-2-cyclohexylidene-acetate)] | < 20 nM | > 100 nM |  |  |  |  |
| CC1=C[C@]23C(=O)[C@@H](C=C(CO)[C@@H](O)[C@]2(O)[C@H]1OC(=O)C(=O)N(C)c1ccccc1)[C@H]1[C@@H](C[C@H]3C)C1(C)C [Compound 121, Ingenol 3-(2-(methyl(phenyl)amino)-2-oxo-acetate)] | 20 to 100 nM | > 100 nM | < 350000 nM |  |  |  |
| CC[C@@H](C)C(=O)O[C@H]1C(C)=C[C@]23C(=O)[C@@H](C=C(CO)[C@@H](O)[C@]12O)[C@H]1[C@@H](C[C@H]3C)C1(C)C [Compound 110, Ingenol 3-(2R-methyl-butanoate)] | < 20 nM | 20 to 100 nM |  |  |  |  |
| CC1=C[C@]23C(=O)[C@@H](C=C(CO)[C@@H](O)[C@]2(O)[C@H]1OC(=O)Cc1ccccc1)[C@H]1[C@@H](C[C@H]3C)C1(C)C [Compound 112, Ingenol 3-(phenyl-acetate)] |  |  |  | < 20 nM | > 100 nM | 150000 to 350000 nM |
| C=C(CC)C(=O)O[C@H]1C(C)=C[C@]23C(=O)[C@@H](C=C(CO)[C@@H](O)[C@]12O)[C@H]1[C@@H](C[C@H]3C)C1(C)C [Compound 104, Ingenol 3-(2-methylene-butyrate)] | < 20 nM | 20 to 100 nM | 150000 to 350000 nM |  |  |  |
| CCC(CC)C(=O)O[C@H]1C(C)=C[C@]23C(=O)[C@@H](C=C(CO)[C@@H](O)[C@]12O)[C@H]1[C@@H](C[C@H]3C)C1(C)C [Compound 109, Ingenol 3-(2-ethyl-butanoate)] | < 20 nM | < 20 nM | 150000 to 350000 nM |  |  |  |
| CC1=C[C@]23C(=O)[C@@H](C=C(CO)[C@@H](O)[C@]2(O)[C@H]1OC(=O)C(C)=C(C)C)[C@H]1[C@@H](C[C@H]3C)C1(C)C [Compound 103, Ingenol 3-(2,3-dimethyl-butenoate)] | < 20 nM | < 20 nM | 150000 to 350000 nM |  |  |  |
| CC1=C[C@]23C(=O)[C@@H](C=C(CO)[C@@H](O)[C@]2(O)[C@H]1OC(=O)CC(C)(C)C)[C@H]1[C@@H](C[C@H]3C)C1(C)C [Compound 108, Ingenol 3-(3,3-dimethyl-butanoate)] | < 20 nM | 20 to 100 nM | 150000 to 350000 nM |  |  |  |
| CC1=C[C@]23C(=O)[C@@H](C=C(CO)[C@@H](O)[C@]2(O)[C@H]1OC(=O)/C(C)=C\c1ccc(C)cc1)[C@H]1[C@@H](C[C@H]3C)C1(C)C [Compound 117, Ingenol 3-((Z)-2-methyl-3-(p-tolyl)prop-2-enoate)] | < 20 nM | < 20 nM | < 150000 nM |  |  |  |
| CC1=C[C@]23C(=O)[C@@H](C=C(CO)[C@@H](O)[C@]2(O)[C@H]1OC(=O)CC(C)C)[C@H]1[C@@H](C[C@H]3C)C1(C)C [Compound 106, Ingenol 3-(3-methyl-butanoate)] | < 20 nM | 20 to 100 nM |  |  |  |  |
| COC(=O)/C=C/C(=O)O[C@H]1C(C)=C[C@]23C(=O)[C@@H](C=C(CO)[C@@H](O)[C@]12O)[C@H]1[C@@H](C[C@H]3C)C1(C)C [Compound 113, Ingenol 3-(2Z-(methoxycarbonyl))-acrylate] | > 100 nM |  |  |  |  |  |
| CCC(C)C(=O)O[C@H]1C(C)=C[C@]23C(=O)[C@@H](C=C(CO)[C@@H](O)[C@]12O)[C@H]1[C@@H](C[C@H]3C)C1(C)C (stereo partly shown) [Compound 107a and Compound 107b, Ingenol 3-(RS-2-methyl-butanoate)] | < 20 nM | 20 to 100 nM |  |  |  |  |
